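Each compound was tested at five concentrations against cells in 96-well plates for 48 hours. TGI: total growth inhibition.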
Legend:
Assay in all cases: growth of human tumour cells (NCI), 48 h
HL-60(TB) leukemia = system: HL-60(TB) leukemia
KM12 colon = system: KM12 colon
PC-3 prostate = system: PC-3 prostate
K-562 leukemia = system: K-562 leukemia
SK-MEL-28 melanoma = system: SK-MEL-28 melanoma
HOP-92 NSCLC = system: HOP-92 NSCLC
A498 renal = system: A498 renal
OVCAR-4 ovarian = system: OVCAR-4 ovarian
SW-620 colon = system: SW-620 colon
SN12C renal = system: SN12C renal
UACC-62 melanoma = system: UACC-62 melanoma
CCRF-CEM leukemia = system: CCRF-CEM leukemia
HT29 colon = system: HT29 colon
OVCAR-5 ovarian = system: OVCAR-5 ovarian
LOX IMVI melanoma = system: LOX IMVI melanoma
T-47D breast = system: T-47D breast
COLO 205 colon = system: COLO 205 colon
DU-145 prostate = system: DU-145 prostate
UACC-257 melanoma = system: UACC-257 melanoma
MOLT-4 leukemia = system: MOLT-4 leukemia
786-0 renal = system: 786-0 renal
SNB-19 CNS = system: SNB-19 CNS
OVCAR-3 ovarian = system: OVCAR-3 ovarian
NCI-H522 lung = system: NCI-H522 lung
UO-31 renal = system: UO-31 renal
MDA-MB-231 breast = system: MDA-MB-231 breast
MDA-N = system: MDA-N
HS 578T breast = system: HS 578T breast
SK-MEL-2 melanoma = system: SK-MEL-2 melanoma
EKVX NSCLC = system: EKVX NSCLC
RPMI-8226 leukemia = system: RPMI-8226 leukemia
SK-OV-3 ovarian = system: SK-OV-3 ovarian
HCT-15 colon = system: HCT-15 colon
RXF 393 renal = system: RXF 393 renal
NCI-H226 lung = system: NCI-H226 lung
HCC-2998 colon = system: HCC-2998 colon
OVCAR-8 ovarian = system: OVCAR-8 ovarian
SK-MEL-5 melanoma = system: SK-MEL-5 melanoma
MCF7 breast = system: MCF7 breast
NCI-H23 lung = system: NCI-H23 lung
SF-295 CNS = system: SF-295 CNS
NCI/ADR-RES ovarian = system: NCI/ADR-RES ovarian
ACHN renal = system: ACHN renal
SF-268 CNS = system: SF-268 CNS
SF-539 CNS = system: SF-539 CNS
MDA-MB-435 = system: MDA-MB-435
M14 melanoma = system: M14 melanoma
MALME-3M melanoma = system: MALME-3M melanoma
SNB-75 CNS = system: SNB-75 CNS
U251 CNS = system: U251 CNS
HCT-116 colon = system: HCT-116 colon
A549 NSCLC = system: A549 NSCLC
NCI-H460 lung = system: NCI-H460 lung
IGROV1 ovarian = system: IGROV1 ovarian
BT-549 breast = system: BT-549 breast
HOP-62 NSCLC = system: HOP-62 NSCLC
CAKI-1 renal = system: CAKI-1 renal
TK-10 renal = system: TK-10 renal

Measured: TGI

CCc1cc(Cc2cc(CC)c(NC(=O)C(=O)CC(=O)c3sc(-c4cccnc4)nc3C)c(CC)c2)cc(CC)c1NC(=O)C(=O)CC(=O)c1sc(-c2cccnc2)nc1C
not listed: HOP-62 NSCLC | CAKI-1 renal | TK-10 renal
> 100 µM: all other assays above

O=C(c1ccco1)N(C(=S)OCCOc1ccccc1)c1ccccc1
39 µM: SF-539 CNS
41.1 µM: OVCAR-5 ovarian | SK-MEL-2 melanoma
53.4 µM: ACHN renal
32.2 µM: OVCAR-3 ovarian
38.2 µM: OVCAR-8 ovarian
39.9 µM: NCI-H23 lung
> 100 µM: HS 578T breast
52.4 µM: EKVX NSCLC
48.4 µM: CAKI-1 renal
46.2 µM: KM12 colon
38.3 µM: 786-0 renal
47.2 µM: RPMI-8226 leukemia
33.1 µM: A498 renal
57.8 µM: PC-3 prostate
35.5 µM: UO-31 renal
28.2 µM: RXF 393 renal
37.5 µM: HOP-92 NSCLC | COLO 205 colon
40.5 µM: NCI-H522 lung
46.5 µM: CCRF-CEM leukemia
34.5 µM: LOX IMVI melanoma
33.9 µM: MDA-N
57.3 µM: OVCAR-4 ovarian
42.8 µM: MCF7 breast
45.3 µM: HCT-15 colon
32.5 µM: HCT-116 colon
37.4 µM: UACC-257 melanoma
76.2 µM: T-47D breast
30.2 µM: U251 CNS
55.3 µM: MOLT-4 leukemia | SK-OV-3 ovarian
58.6 µM: NCI/ADR-RES ovarian | NCI-H460 lung
37.3 µM: M14 melanoma
90.2 µM: A549 NSCLC
35.3 µM: SF-268 CNS
39.1 µM: SN12C renal
29.7 µM: MDA-MB-435
83.4 µM: K-562 leukemia
32.1 µM: HOP-62 NSCLC
43.5 µM: BT-549 breast
59.7 µM: SNB-19 CNS
32.7 µM: UACC-62 melanoma
41.8 µM: SW-620 colon
51.6 µM: DU-145 prostate
40 µM: MALME-3M melanoma
36.9 µM: IGROV1 ovarian
55.2 µM: TK-10 renal
47.3 µM: HL-60(TB) leukemia
30.6 µM: MDA-MB-231 breast
37.9 µM: HCC-2998 colon
42.1 µM: HT29 colon
40.3 µM: SK-MEL-28 melanoma
36.6 µM: SF-295 CNS

CN(C)CCCN=c1c2ccccc2n(O)c2ccccc12
72.7 µM: NCI-H226 lung
28.8 µM: HT29 colon
63.4 µM: BT-549 breast
26.9 µM: COLO 205 colon
not listed: SNB-19 CNS | HCC-2998 colon
> 100 µM: all other assays above

Nc1ccc(Cc2c(N)[nH]c(=O)[nH]c2=O)cc1
not listed: KM12 colon | EKVX NSCLC | RXF 393 renal | SNB-75 CNS | IGROV1 ovarian | HOP-62 NSCLC | TK-10 renal
> 100 µM: all other assays above
